Measurements from patent US20250136617A1 (The Regents of the University of Colorado, A Body Corporate, priority 2022, published 2025).
Entries after “also recorded” stand apart in the source; their conditions may differ. Read-outs that look alike come from different tables or passages of the source. Blank lines part the entries; values can stand above or below the compound they belong to.

Columns and labels:
[1] = system: CEM-CCRF human lymphoblast cells; assay: Transwell migration assay in CEM-CCRF lymphoblasts; format: cell-based
Procedure: Thus, to confirm CXCR4 functional activity, UCUF-728 was evaluated in a 96 w transwell migration assay in CEM human lymphoblast cells.
CEM-CCRF (ATCC CCL-119) were suspended in RPMI 1640 (Corning; 10-040-CV) at 5.0×10^5 cells/mL and allowed to incubate in cell culture incubator at 37° C. with 5% CO2 for one hour. […] Plates were reassembled and placed in a cell culture incubator at 37° C. with 5% CO2 for three hours. After incubation, Multi-Screen plate was disassembled and 100 μl of solution was collected from compound receiver tray and transferred to 96 well luminescent plate (Thermo Scientific; 265302) and an equal volume of ATPLite Istep luminescence reagent (Perkin Elmer, Waltham, MA; 6016731) was added to each well. Luminescence was measured using the CLARIOstar Plus (BMG LABTECH Inc., Cary, NC).

CXCR4 [2] = target: T1, CXCR4 (Homo sapiens, UniProt P61073); assay: Adenylate cyclase (cAMP inhibition) assay, thiadiazine scaffold, CHO-CXCR4-cAMP cells; format: cell-based; design: host or cells: CHO-K1
Procedure: Tango™ CXCR4-bla U2OS Cells (Invitrogen; K1779) were used for (β-arrestin recruitment assays and maintained as a monolayer culture in McCoy's 5a (Corning; 10-050-CV) supplemented with 10% dialyzed Fetal Bovine Serum (Gibco; 26400-044), 0.1 mM MEM Non-essential amino acids solution, 25 mM HEPES solution (Corning; 25-060-CI), 1 mM Sodium Pyruvate (Gibco; 11360-070), 200 μg/mL Zeocin selection reagent (Gibco; R25001), 50 μg/mL Hygromycin B (Gibco, 10687010), and 100 μg/mL Geneticin (G418 Sulfate) (Gibco, 10131035). U2OS cells were subcultured twice weekly by 0.05% Trypsin-EDTA treatment (Corning; 25-051-CI) and passaged to continue exponential growth phase for cell signaling assays. All cell cultures were maintained in cell culture incubators at 37° C. with 5% CO2. CHO-K1 CXCR4 cells (DiscoverX, Fremont, CA, USA) were used for cAMP inhibition assays and maintained as a monolayer culture in DMEM/F12 (Corning; 10-091-CV) supplemented with 10% Fetal Bovine Serum (Corning; 35-011-CV) and 100IU penicillin, […] streptomycin sulfate (Corning; 30-002-CI) and […] G418 (Gibco; 101310350. Cells were subculture 2 times weekly by o.o5% Trypsin-EDTA treatment (Corning; 25-051-CI) and passaged to continue exponential growth phase for cell signaling assays. All cell cultures were maintained in cell culture incubators at 37° C. with 5% CO2.CEM-CCRF cells (ATCC CCL-119) were used in both the migration and calcium flux assays and were cultured in growth media consisting of RPMI 1640 (Corning; 10-040-CV) supplemented with 10% Fetal Bovine Serum (Corning; 35-011-CV), and 100 IU penicillin, […] streptomycin sulfate (Corning; 30-002-CI). […] Cells were harvested for use in migration and calcium flux assays at 2.0×10^6 cells/mL to 2.5×10^6 cells/mL and resuspended in assay media to desired density for respective experiments.
Compounds and DMSO normalization to 0.5% were dispensed using the TECAN D300e digital dispenser into the wells of a 384-well white wall clear-bottom assay plate (Griener 781983). […] This cell suspension was dispensed at 20 μL per well into the assay plate and allowed to incubate overnight for approximately 18 hrs with compounds in cell culture incubator at 37° C. with 5% CO2. Following incubation, DMEM/F12 media was gently removed, then the Lance Ultra cAMP Kit (Perkin Elmer; TRF0263) was performed according to the supplier guidelines. […] Time-resolved fluorescence was measured on the BMG LABTECH CLARIOstar Plus (BMG LABTECH Inc., Cary, NC) using the Lance Ultra cAMP kit guidelines for excitation and emission. […]

CXCR4 [3] = target: T1, CXCR4; assay: Tag-Lite CXCR4 binding assay (displacement of fluorescent SDF-1α)
Procedure: Binding activity was measured using the Cisbio Tag-Lite Chemokine CXCR4 system (CisBio, Bedford, MA). […] Following three-hour incubation, HTRF measurements were taken using the BMG LABTECH CLARIOstar Plus (BMG LABTECH Inc., Cary, NC) with emission signals set to the Cisbio Tag-Lite Binding Assay supplier guidelines. HTRF ratio calculations completed according to supplier guidelines.

CXCR4 [4] = target: T1, CXCR4; assay: cAMP signaling assay, oxazole scaffold (forskolin-induced adenylate cyclase, CHO-K1 CXCR4 cells); format: cell-based; design: host or cells: CHO-K1
Procedure: The CXCR4 receptor is a G-protein coupled receptor (GPCR) coupled to the Gi class, whose primary role is inhibition of adenylate cyclase. The ability of UCUF-728 to induce Gi-mediated cAMP-inhibitory cellular response was tested.
Forskolin at final concentration of […] was added to all wells using the TECAN dispenser. […] PathHunter CHO-K1 CXCR4 cells (DiscoverX, Fremont, CA) were added to compounds at 3,000 cells/well, centrifuged at 1000 rpm for 30 sec and incubated for 30 min at room temperature. DMSO (Sigma Aldrich, St. Louis, MO) was normalization to 0.5%. 5 μL of 4× Eu-cAMP tracer working solution was added to all wells followed by addition of 5 μL of 4× Ulight-anti-cAMP working solution to all wells. Plates were centrifuged at 1000 rpm for 1 min and incubated for 1 hr at room temperature then read using CLARIOstar Plus (BMG LABTECH Inc., Cary, NC) Lance CAMP protocol.

CXCR4 [5] = target: T1, CXCR4; assay: β-arrestin recruitment, 384-well, Tango CXCR4-bla U2OS cells, normalized to SDF-1α; format: cell-based; design: host or cells: U2OS; details: normalized to SDF-1α; read-out: ß-arrestin recruitment EC50
Procedure: Tango™ CXCR4-bla U2OS Cells (Invitrogen; K1779) were used for (β-arrestin recruitment assays and maintained as a monolayer culture in McCoy's 5a (Corning; 10-050-CV) supplemented with 10% dialyzed Fetal Bovine Serum (Gibco; 26400-044), 0.1 mM MEM Non-essential amino acids solution, 25 mM HEPES solution (Corning; 25-060-CI), 1 mM Sodium Pyruvate (Gibco; 11360-070), 200 μg/mL Zeocin selection reagent (Gibco; R25001), 50 μg/mL Hygromycin B (Gibco, 10687010), and 100 μg/mL Geneticin (G418 Sulfate) (Gibco, 10131035). U2OS cells were subcultured twice weekly by 0.05% Trypsin-EDTA treatment (Corning; 25-051-CI) and passaged to continue exponential growth phase for cell signaling assays. All cell cultures were maintained in cell culture incubators at 37° C. with 5% CO2. CHO-K1 CXCR4 cells (DiscoverX, Fremont, CA, USA) were used for cAMP inhibition assays and maintained as a monolayer culture in DMEM/F12 (Corning; 10-091-CV) supplemented with 10% Fetal Bovine Serum (Corning; 35-011-CV) and 100IU penicillin, […] streptomycin sulfate (Corning; 30-002-CI) and […] G418 (Gibco; 101310350. Cells were subculture 2 times weekly by o.o5% Trypsin-EDTA treatment (Corning; 25-051-CI) and passaged to continue exponential growth phase for cell signaling assays. All cell cultures were maintained in cell culture incubators at 37° C. with 5% CO2.CEM-CCRF cells (ATCC CCL-119) were used in both the migration and calcium flux assays and were cultured in growth media consisting of RPMI 1640 (Corning; 10-040-CV) supplemented with 10% Fetal Bovine Serum (Corning; 35-011-CV), and 100 IU penicillin, […] streptomycin sulfate (Corning; 30-002-CI). Cells were maintained in suspension and sub-cultured twice weekly to maintain cell densities between 0.8×10^6 cells/mL and 2.5×10^6 cells/mL to maintain exponential growth phase. Cells were harvested for use in migration and calcium flux assays at 2.0×10^6 cells/mL to 2.5×10^6 cells/mL and resuspended in assay media to desired density for respective experiments.
Tango™ CXCR4-bla U2OS Cells were resuspended in assay media consisting of DMEM (Corning; Corning, NY) supplemented with 1% dialyzed Fetal bovine serum, 0.1 mM MEM Non-essential amino acids solution, 25 mM HEPES solution (Corning; Corning, NY), 1 mM Sodium Pyruvate and 100 IU penicillin, […] streptomycin sulfate (Corning; Corning, NY) at a density of 3.0×10^5 cells/ml. Assay media FreeStyle 293 expression Medium (Gibco; 12338018) was used for testing the thiadiazine scaffold CXCR4 agonists. Cells suspension was dispensed at 30 μl per well into assay plate and incubated overnight in a cell culture incubator at 37° C. with 5% CO2. […] Following overnight incubation, LiveBlazer FRET B/G Loading Kit (Invitrogen; K1095) working reagent was prepared according to supplier guidelines and 6 μl of solution was dispensed into each well; 8 μL of solution for testing the thiadiazine scaffold CXCR4 agonists. Assay plate was covered and incubated in a dark place for two hours and Fluorescence Intensity was measured using the BMG LABTECH CLARIOstar Plus (BMG LABTECH Inc., Cary, NC) according to the LiveBlazer FRET B/G Loading Kit excitation and emission measurement guidelines.
Results are expressed as mean±SD for 3 to 5 independent experiments. Statistically significant differences in gene expression between two groups were assessed by Student's T-test, ANOVA with an appropriate post hoc test was be used for multiple comparisons. P<0.05 was considered to be statistically significant. All concentration response curves were analyzed to determine EC50 and Emax using the following equation:
where Y is the normalized response (0-100%), X is the log of concentration of compound tested, and the Hill slope is equal to 1.0% and 100% activity are specific to each assay. […]

T1 sequence (P61073 whole entry): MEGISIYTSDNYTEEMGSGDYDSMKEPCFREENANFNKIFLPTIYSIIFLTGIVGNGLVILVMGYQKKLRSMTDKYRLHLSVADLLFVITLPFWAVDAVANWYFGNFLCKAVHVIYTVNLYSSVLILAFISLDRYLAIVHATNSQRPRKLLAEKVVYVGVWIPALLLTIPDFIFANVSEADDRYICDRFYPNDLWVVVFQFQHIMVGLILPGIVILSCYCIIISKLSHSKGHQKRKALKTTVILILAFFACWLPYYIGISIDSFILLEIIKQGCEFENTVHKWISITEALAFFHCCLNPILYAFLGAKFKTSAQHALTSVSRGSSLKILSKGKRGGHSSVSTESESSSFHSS

Compound: c1cc(CN2CCCNCCNCCCNCC2)ccc1CN1CCCNCCNCCCNCC1 [AMD3100, reference compound]
migration activity (words) [1]: blocked; also recorded: completely blocks SDF-1α induced migration; also recorded: unable to inhibit UCUF-965-induced migration; also recorded: does not inhibit the migratory response of CEM-CCRF cells induced by UCUF-965
IC50 ([1]; Homo sapiens, read-out: logIC50, inhibition of migration (converted)): 0.0316 µM
migration activity (words) ([1]; listed as AMD 3100): able to inhibit the migration response induced by SDF-1α
cAMP inhibition activity (CXCR4 [2]): reduces the activity of SDF-1α to inhibit cAMP
Emax (CXCR4 [2]; read-out: SDF-1α Emax reduced to, in the presence of 1 μM AMD3100): 40%
displacement of SDF-1α binding (CXCR4 [3]): dose-dependently displaced SDF-1α; also recorded: dose-dependently displaced SDF-1a saturation binding; also recorded: dose-dependently inhibited SDF-1α saturation binding
cAMP signaling / forskolin-induced adenylate cyclase (CXCR4 [4]): dose-dependently blocked; also recorded: dose-dependent inhibition of 40 nM SDF-1α

IC50 (CXCR4 [2]; CXCR4 overexpressing CHO cells, read-out: IC50, inhibition of forskolin-stimulated cAMP production): 0.0015 µM
log IC50, inhibition of forskolin-stimulated cAMP production (CXCR4 [2]; log value): −8.9±0.1 M
Compound: SDF-1α
cAMP signaling / forskolin-induced adenylate cyclase (CXCR4 [4]): inhibited forskolin-induced adenylate cyclase

Compound: CCOc1ccccc1-c1nnc2n1N=C(c1ccc(N3CCCC3)cc1)CS2 [Entry 23]
EC50 (CXCR4 [2]; inhibition of forskolin-stimulated cAMP): 0.05 µM
EC50 (CXCR4 [5]): 0.02 µM

cAMP inhibition activity (CXCR4 [2]): partial agonist activity
Compound: CCOc1ccccc1-c1nnc2n1N=C(c1ccc(N3CCCC3=O)cc1)CS2 [compound 63]
migration activity (words) [1]: partial agonist activity
